# What was measured:
# Green foxtail = experiment: Test D green foxtail; assay type: in vivo; details: Postemergence, 0 to 100 scale, 0 no injury, 100 complete control
# Setaria faberii (SETFA) = experiment: Test F preemergence, alone and in mixture with rimsulfuron, SETFA; assay type: in vivo; details: 21 days after treatment, 0-100 scale
# Procedure: (§1) Abutilon theophrasti (ABUTH), Chenopodium album (CHEAL), Amaranthus rudis (AMATA), Setaria faberii (SETFA), Panicum dichotomiflorum (PANDI), and Digitaria sanguinalis (DIGSA) were grown from seed in pots of an artificial potting mixture in a greenhouse. Compounds of the present invention were applied at 70 and 105 g ai/ha preemergence. Rimsulfuron was applied at 8.8 and 17.5 g ai/ha. Mixtures of the compounds of the present invention and rimsulfuron were also applied.
# (§2) Following application, the plants were maintained by watering as needed. A fertilizer solution of Peter's 20-20-20 (10 pounds/5 gallons of water) plus Sprint 330, a Iron Chelate micronutrient, (113.5 grams/5 gallons of water) was injected into the water with an Anderson fertilizer injection system to provide approximately 219 ppm of nitrogen with each watering. Artificial lighting was used to supplement natural light to produce a 14 hour photoperiod and: an additional one hour light period was used between 1:00 am to 2:00 am for a night interruption. Greenhouse temperatures were targeted for 27° C. in the day and 21° C. at night. At 21 days after treatment, all plants were evaluated for injury as compared to control plants that were sprayed only with non-phytotoxic solvent.
# (§3) Colby's equation was used to calculate the expected additive herbicidal effect of the mixtures of Compound 21 and the mixture partners listed above. […]
# [1] = tested on: Abutilon theophrasti (ABUTH); experiment: Test F preemergence, alone and in mixture with rimsulfuron, ABUTH; assay type: in vivo; details: 21 days after treatment, 0-100 scale
# In short: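 Greenhouse pot plants treated preemergence with compound at 70 and 105 g ai/ha, rimsulfuron at 8.8 and 17.5 g ai/ha, or mixtures; 27° C day/21° C night, 14 hour photoperiod. Injury scored at 21 days after treatment against solvent-sprayed controls; expected additive effect of mixtures calculated by Colby's equation.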
# large crabgrass = experiment: Test D large crabgrass; assay type: in vivo, Digitaria sanguinalis; details: Postemergence, 0 to 100 scale
# [2] = tested on: Chenopodium album (CHEAL); experiment: Test F preemergence, alone and in mixture with rimsulfuron, CHEAL; assay type: in vivo; details: 21 days after treatment, 0-100 scale
# Procedure: as §1, §2, §3
# pitted morningglory = experiment: Test D pitted morningglory; assay type: in vivo, Ipomoea lacunosa; details: Postemergence, 0 to 100 scale
# surinam grass = experiment: Test D surinam grass; assay type: in vivo, Brachiaria decumbens; details: Postemergence, 0 to 100 scale
# maize hybrid P33G26 = experiment: Test G maize injury with safener-treated seed; details: for Mean plant response rating, maize: 28 days after application
# In short: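 Maize hybrid P33G26 seed, treated with dichlormid, fenchlorazole-ethyl or naphthalic anhydride or left untreated, was sown in soil pots, then sprayed pre-emergence with several compound rates at 310 L/ha. Plants grew in a greenhouse (14 h day, about 27/24 °C day/night), with 4–5 replicates. Injury was scored visually against untreated controls 28 days after application.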
# certain weeds = experiment: Test F overall statement on synergism with rimsulfuron (Colby's equation); assay type: in vivo; details: combinations with rimsulfuron, preemergence
# Procedure: as §2, with “Abutilon theophrasti (ABUTH), Chenopodium album (CHEAL), Amaranthus rudis (AMATA), Setaria […]), Panicum dichotomiflorum (PANDI), and Digitaria sanguinalis (DIGSA) were grown from seed in pots of an artificial potting mixture in a greenhouse. Compounds of the present invention were applied at 70 and 105 g ai/ha preemergence. Rimsulfuron was applied at 8.8 and 17.5 g ai/ha. Mixtures of the compounds of the present invention and rimsulfuron were also applied. Following” for “Following”, “solvent. […] Colby's equation was used to calculate the expected additive herbicidal effect of the mixtures of Compound 21 and the mixture partners listed above. […]” for “solvent.”
# Spanishneedles = experiment: Test D Spanishneedles; assay type: in vivo, Bidens bipinnata; details: Postemergence, 0 to 100 scale
# bermuda-grass = experiment: Test D bermudagrass; assay type: in vivo, Cynodon dactylon; details: Postemergence, 0 to 100 scale
# common groundsel = experiment: Test D common groundsel; assay type: in vivo, Senecio vulgaris; details: Postemergence, 0 to 100 scale
# [3] = Alone: Cmpd. rate 70, Rimsulfuron 0
# [4] = Alone: Cmpd. rate 105, Rimsulfuron 0
# [5] = Rate 16 g/ha, 0 no injury, 100 complete control
# [6] = Rate 32 g/ha, 0 no injury, 100 complete control
# [7] = Rate 64 g/ha, 0 no injury, 100 complete control
# [8] = Rate 125 g/ha, 0 no injury, 100 complete control
smiles,measurement,setting,value
CC(C)N(C(=O)n1oc(=O)n(C(C)C)c1=O)c1ccc(F)cc1 [Compound 131],"Plant response rating, Green foxtail",Green foxtail; Rate 16 g/ha,0
same,"Plant response rating, Green foxtail",Green foxtail; Rate 32 g/ha,60
same,SETFA Observed,Setaria faberii (SETFA); [3],35%
same,SETFA Observed,Setaria faberii (SETFA); [4],65%
same,ABUTH Observed,[1]; [3],40%
same,ABUTH Observed,[1]; [4],60%
same,Plant response rating Large crabgrass,large crabgrass; [5],90
same,Plant response rating Large crabgrass,large crabgrass; [6],100
same,Plant response rating Large crabgrass,large crabgrass; [7],100
same,Plant response rating Large crabgrass,large crabgrass; [8],100
same,Plant response rating Large crabgrass,large crabgrass; Rate 250 g/ha,100
same,CHEAL Observed,[2]; [3],60%
same,CHEAL Observed,[2]; [4],95%
same,"Plant response rating, P. morninglory",pitted morningglory; [5],0
same,"Plant response rating, P. morninglory",pitted morningglory; [6],0
same,"Plant response rating, P. morninglory",pitted morningglory; [7],0
same,"Plant response rating, P. morninglory",pitted morningglory; [8],0
same,"Plant response rating, P. morninglory",pitted morningglory; Rate 250 g/ha,100
same,"Plant response rating, Surinam grass",surinam grass; [5],0
same,"Plant response rating, Surinam grass",surinam grass; [6],40
same,Surinam grass plant response rating,surinam grass; [7],60
same,Surinam grass plant response rating,surinam grass; [8],100
same,"Plant response rating, Surinam grass",surinam grass; Rate 250 g/ha,100
same,"Mean plant response rating, maize","maize hybrid P33G26; Safener Dichlormid (seed treatment), Rate 70 g ai/ha",3 percent control
same,"Mean plant response rating, maize","maize hybrid P33G26; Safener Dichlormid (seed treatment), Rate 140 g ai/ha",3 percent control
same,"Mean plant response rating, maize","maize hybrid P33G26; Safener Dichlormid (seed treatment), Rate 280 g ai/ha",3 percent control
same,"Mean plant response rating, maize","maize hybrid P33G26; Safener Dichlormid (seed treatment), Rate 560 g ai/ha",40 percent control
same,"Mean plant response rating, maize","maize hybrid P33G26; Safener Fenchlorazole-ethyl (seed treatment), Rate 70 g ai/ha",85 percent control
same,"Mean plant response rating, maize","maize hybrid P33G26; Safener Fenchlorazole-ethyl (seed treatment), Rate 140 g ai/ha",91 percent control
same,"Mean plant response rating, maize","maize hybrid P33G26; Safener Fenchlorazole-ethyl (seed treatment), Rate 280 g ai/ha",92 percent control
same,"Mean plant response rating, maize","maize hybrid P33G26; Safener Fenchlorazole-ethyl (seed treatment), Rate 560 g ai/ha",96 percent control
same,"Mean plant response rating, maize","maize hybrid P33G26; Safener None, Rate 70 g ai/ha",80 percent control
same,"Mean plant response rating, maize","maize hybrid P33G26; Safener None, Rate 140 g ai/ha",88 percent control
same,"Mean plant response rating, maize","maize hybrid P33G26; Safener None, Rate 280 g ai/ha",91 percent control
same,"Mean plant response rating, maize","maize hybrid P33G26; Safener None, Rate 560 g ai/ha",95 percent control
same,"Mean plant response rating, maize","maize hybrid P33G26; Safener naphthalic anhydride (seed treatment), Rate 140 g ai/ha",0 percent control
same,Injury to maize,"maize hybrid P33G26; absence of any safener, rates ranging from 70 to 560 g/ha",severely injurious to maize
same,Weed control of combination with rimsulfuron compared with expectation from Colby's equation,certain weeds,better control of certain weeds than expected
same,"Plant response rating, Spanishneedles",Spanishneedles; [5],0
same,"Plant response rating, Spanishneedles",Spanishneedles; [6],0
same,Spanishneedles plant response rating,Spanishneedles; [7],0
same,Spanishneedles plant response rating,Spanishneedles; [8],70
same,"Plant response rating, Spanishneedles",Spanishneedles; Rate 250 g/ha,60
same,"Plant response rating, Bermudagrass",bermuda-grass; [5],30
same,"Plant response rating, Bermudagrass",bermuda-grass; [6],90
same,"Plant response rating, Bermudagrass",bermuda-grass; [7],100
same,"Plant response rating, Bermudagrass",bermuda-grass; [8],100
same,"Plant response rating, Bermudagrass",bermuda-grass; Rate 250 g/ha,100
same,"Plant response rating, Com. groundsel",common groundsel; [5],90
same,"Plant response rating, Com. groundsel",common groundsel; [6],100
same,"Plant response rating, Com. groundsel",common groundsel; [7],100
same,"Plant response rating, Com. groundsel",common groundsel; [8],100
same,"Plant response rating, Com. groundsel",common groundsel; Rate 250 g/ha,100

# Source: US6737383B1, “Herbicidal oxadiazolidines” (priority 1999, dated 2004)
